Columns and labels:
MCF7 spheroids = assay: Change in MCF7 spheroid size after Doxorubicin treatment in tumor-on-a-chip device; assay type: cell-based; settings: for decrease in spheroid area: 3 days (D8 area normalized to D5)
Experimental: HUVECs and MCF7 spheroids were encapsulated within GelMA hydrogels. The MCF spheroids were passed through a cell strainer having 100 μm pore size (Corning) to eliminate single cells and small spheroids. Around 50 spheroids with a diameter of ˜200 μm were dispersed in 5 mL of PBS containing 2 million HUVEC cells. The mixture was centrifuged for 3 minutes at 800 rpm. The supernatant was aspirated and 100 μL of 10% GelMA solution was added to the cell pellet. The cells were re-suspended gently using a pipette before the addition of 0.01% ascorbic acid (antioxidant) and 2 μM LAP (photoinitiator) to the solution. This solution was again mixed gently, drawn into a syringe, and injected into the microfluidic device (FIG. 8, step G).
This device was placed onto a transparency film photomask containing an ellipse pattern and mounted onto a microscope stage (FIG. 8, steps H-I). Using the stage controller of the microscope, the position of the fluidic device was moved to locate individual MCF7 spheroids surrounded by HUVECs under bright field illumination. Each location was exposed to UV light with an excitation and emission wavelengths of approximately 358 and 463 nm, respectively, for 18 seconds. Several locations were photopolymerized before flushing the device with PBS containing 4% Penicillin/Streptomycin. Mixed Media (MM) containing 50% GM and 50% HM was subsequently injected into the device and the GelMA structures containing MCF7 spheroids and HUVECs were cultured at 37° C. and 10% CO2.
Brightfield images of the GelMA hydrogels containing the spheroids and HUVECs were recorded as a function of culture time (1-5 days) to examine their growth post-encapsulation. The area of the spheroid was quantified by tracing the boundary of the spheroid using the free-hand selection tool on ImageJ. […]
The potential of the device as a drug screening platform was assessed by analyzing the effects of Doxorubicin on HUVEC barrier and the tumor spheroids. […] To quantify the effects of Doxorubicin, the changes in spheroid size was analyzed before and after treatment with varying concentrations of the drug.

HUVECs = assay: Effect of Doxorubicin on HUVEC endothelial barrier around GelMA structures
Experimental: HUVECs and MCF7 spheroids were encapsulated within GelMA hydrogels.
Doxorubicin (Cat. No. D1515, Sigma-Aldrich) was weighed and dissolved in DMSO to achieve a concentration of 100 mg/mL. This solution was distributed into small aliquots and stored in −20° C. The stock solution was thawed and diluted to 100 μg/mL in pre-warmed MM (˜37° C.) and sterilized using a DMSO-resistant syringe filter (Pall Corporations). This 100 μg/mL solution was further diluted in MM to acquire doxorubicin concentrations of 1 and 10 μg/mL used herein.
The potential of the device as a drug screening platform was assessed by analyzing the effects of Doxorubicin on HUVEC barrier and the tumor spheroids. Cell laden GelMA structures, cultured for 5 days, were exposed to different concentrations of Doxorubicin (1, 10, and 100 μg/mL) for 3 days.

[1] = test system: neonatal mouse cardiomyocytes
Experimental: Isolated primary neonatal cardiomyocytes were mixed with 8.5% wt/vol GelMa solution containing 0.01% wt/vol of ascorbic acid and 2 mM lithium phenyl-2,4,6-trimethylbenoylphosphinate (LAP). This solution was injected into the fluidics chamber (see FIG. 3D) and a dark transparency mask containing the clear ellipse patterns was placed under the circular chamber of the device. The GelMa solution was photo-polymerized using a UV light source with an excitation wavelength of 365±40 nm (see FIG. 3E). The regions of the hydrogel precursor solution exposed to UV light polymerized rapidly, thereby forming the microtissues with cells encapsulated within (see FIG. 3E). The unreacted hydrogel precursor solution was removed from the fluidics chamber by injecting PBS in excess (see FIG. 3F). Thus, the 3D device with patterned cardiac-microtissues between hydrogels was created (see FIG. 3G). The device was then perfused with cardiomyocyte growth media and incubated at 37° C. and 10% CO2 culture conditions. […]
To quantify the forces generated by the cardiomyocytes, the propagation of forces originating from the GelMA structures were exploited to PAm hydrogels. […] In addition, a measured value of 8.5 kPa was used for the elastic modulus of the PAm hydrogel and 0.45 for Poisson's ratio.
By treating the PAm hydrogel as a 3 dimensional block tethered at the bottom in mechanical equilibrium, a finite element (FE) approach was used to solve a series of electrostatics equations. […] To obtain the input for the boundary condition at the top surface of the gel, the displacement of the hydrogel was quantified by tracking the fluorescent particles embedded within the network using particle image velocimetry (PIV). […]
Using this approach, fluorescent images were obtained of the green beads embedded within PAm at a frequency of 9 frames per second in order to capture the contraction profile of the cardiomyocytes at 20× magnification. […] Using the FE approach, the traction stress field caused by the cellular forces was calculated.

| SMILES | spheroid growth less than those cultured in the absence of the drug (MCF7 spheroids; 1 μg/mL Doxorubicin, 3 days, growth still observed) [%] | decrease in spheroid area (MCF7 spheroids; 10 μg/mL Doxorubicin) [%] | decrease in spheroid area (MCF7 spheroids; 100 μg/mL Doxorubicin) [%] | presence of endothelial barrier (HUVECs; at and above 10 μg/mL of Doxorubicin, D8) | endothelial barrier (HUVECs; high doses of Doxorubicin (>10 μg/mL)) | endothelial barrier (cytotoxicity to HUVECs) (HUVECs; upon exposure to Doxorubicin, 3 days) | magnitude of contraction ([1]; addition of epinephrine (0.1 μg/mL)) | ratio of residual stress in the presence of epinephrine to absence of epinephrine ([1]; multiple microtissues, cultured 7 days, value <1 = decrease, epinephrine 0.1 μg/mL) | ratio of force amplitude in the presence of epinephrine to absence of epinephrine ([1]; multiple microtissues, cultured 7 days, value >1 = increase, epinephrine 0.1 μg/mL) |
| --- | --- | --- | --- | --- | --- | --- | --- | --- | --- |
| COc1cccc2c1C(=O)c1c(O)c3c(c(O)c1C2=O)C[C@@](O)(C(=O)CO)C[C@@H]3O[C@H]1C[C@H](N)[C@H](O)[C@H](C)O1 [Doxorubicin] | ~20 | ~7 | ~15 | lack thereof | loss of the endothelial barrier | disappeared | – | – | – |
| CNC[C@H](O)c1ccc(O)c(O)c1 [epinephrine] | – | – | – | – | – | – | increased | ~0.9 | ~1.4 |
